The results in this text go back to US20050004167A1, “Branched chain amino acid-dependent aminotransferase inhibitors and their use in the treatment of neurodegenerative diseases” (WARNER-LAMBERT COMPANY LLC, priority 2001, published 2005).

For one assay, the target named is T1, rat BCAT cytosolic form (Rattus norvegicus, UniProt P54690).
T1 construct: made in house; host or cells: E. coli BL21(DE3)
T1 sequence (P54690 1-411): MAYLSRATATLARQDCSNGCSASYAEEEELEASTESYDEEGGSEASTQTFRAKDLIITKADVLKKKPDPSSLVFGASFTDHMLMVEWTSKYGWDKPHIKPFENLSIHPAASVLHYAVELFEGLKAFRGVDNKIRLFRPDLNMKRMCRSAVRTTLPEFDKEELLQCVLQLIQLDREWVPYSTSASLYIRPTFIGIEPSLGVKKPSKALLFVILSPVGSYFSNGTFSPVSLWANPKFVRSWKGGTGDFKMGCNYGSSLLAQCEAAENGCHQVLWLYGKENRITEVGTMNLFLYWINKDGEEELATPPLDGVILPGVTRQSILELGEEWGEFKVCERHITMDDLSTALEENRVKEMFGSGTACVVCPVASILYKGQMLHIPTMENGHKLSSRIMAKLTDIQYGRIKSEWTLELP
Nature of the assay: In vitro coupled enzyme assay (glutamate dehydrogenase, NADH formation), rat BCATc. In kind it is biochemical. Conditions: recombinant rat BCATc, 37° C., 25 mM phosphate buffer pH 7.8; several values in a cell = repeat determinations; read-out: RrBCATc. The procedure:
In vitro enzyme assay—human Branched Chain Amino Acid Aminotransferase cytosolic form (hBCATc) and mitochondrial form (hBCATm) as well as rat BCAT cytosolic form were assayed at 37° C. in 25 mM phosphate buffer pH 7.8. In addition, 2 mM DTT and 12.5 mM […] were added to the assay mixture. A coupling enzyme assay was used to monitor the production of glutamate. The formation of NADH from NAD+ at […] was followed on a 96-well plate Molecular Devices plate reader.
The following components were used in this coupled assay: 4 mM ADP, 1 mM NAD+, 750 μM L-Leucine, 500 μM α-ketoglutarate, 10 μM pyridoxal phosphate, 1 unit glutamate dehydrogenase, and 1.25 μg of the appropriate BCAT enzyme. Inhibitions by compounds were assayed by adding various concentrations to this coupled assay procedure as a DMSO stock up to a 5% v/v DMSO/buffer ratio.
Enzyme Preparation—humanBCATc and ratBCATc were expressed in BL21(DE3) cells. A growing culture of cells was induced with 1 mM IPTG at room temperature overnight. These cells were harvested by centrifugation at 10,000 g for 20 minutes. The supernatant was discarded, and the cells were stored at −80° C. until needed. The protein was purified by the following method. The cell paste was resuspended in extraction buffer (0.1 M phosphate, pH 8.0, with 0.01 M Tris-HCL and 5 mM TCEP and then lysed on a French Press at 1000 psi. The lysate was centrifuged at 10,000 g for 15 minutes, and the pellet was discarded. The supernatant was loaded onto a Hitrap Chelating column previously charged with 0.1 M NiSO4 and washed with 3 to 4 column volumes of extraction buffer. The column was then washed with 0.01 Tris, pH 7.5, 10% glycerol, 150 mM NaCl, 5 mM TCEP for two column volumes. The column was then further washed with two column volumes of 0.1 M phosphate, pH 6.0, 0.01 M Tris, 10% glycerol and 750 mM NaCl. Finally, the column was washed with two column volumes of the same buffer plus 50 mM imidazole. The BCAT enzyme was then eluted with the same buffer but with 350 mM imidazole. The eluant was then dialyzed overnight against 10 mM phosphate buffer pH 8.0, 10% glycerol, and 5 mM TCEP. The dialyzed protein was then loaded onto a Q-sepharose column and eluted using a salt gradient. Active fractions were collected and further purified on a Superose-12 column to yield pure BCAT protein.

For assay [1], the target named is T2, human Branched Chain Amino Acid Aminotransferase cytosolic form (hBCATc) (Homo sapiens, UniProt P54687).
T2 construct: made in house; host or cells: E. coli BL21(DE3)
T2 sequence (P54687 1-386): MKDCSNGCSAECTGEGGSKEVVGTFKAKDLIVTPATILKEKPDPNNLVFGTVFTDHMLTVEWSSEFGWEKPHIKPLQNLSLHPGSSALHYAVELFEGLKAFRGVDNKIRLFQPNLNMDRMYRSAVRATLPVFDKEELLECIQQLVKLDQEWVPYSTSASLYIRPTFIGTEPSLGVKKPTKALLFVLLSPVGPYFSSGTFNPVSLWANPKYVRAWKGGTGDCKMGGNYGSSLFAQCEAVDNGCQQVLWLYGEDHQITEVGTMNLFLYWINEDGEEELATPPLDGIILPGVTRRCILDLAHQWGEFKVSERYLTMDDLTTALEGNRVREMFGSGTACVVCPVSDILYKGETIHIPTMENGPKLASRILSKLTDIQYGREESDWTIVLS
As to the kind of experiment: In vitro coupled enzyme assay (glutamate dehydrogenase, NADH formation), human BCATc. In kind it is biochemical. Conditions: recombinant human BCATc, 37° C., 25 mM phosphate buffer pH 7.8; several values in a cell = repeat determinations; read-out: RhBCATc. A digest of the protocol: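 At 37 °C in 25 mM phosphate pH 7.8 with 2 mM DTT, 1.25 μg His-tag-purified E. coli-expressed BCAT transaminated 750 μM L-leucine with 500 μM α-ketoglutarate and 10 μM PLP. Glutamate was coupled via glutamate dehydrogenase (1 mM NAD+, 4 mM ADP) to NADH formation at 340 nm. Compounds were added in DMSO up to 5% v/v.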

Values joined by “and” are separate entries in the source; they are usually repeats but may differ in a detail not shown here. Identical values can stand only once.

In the case of `COc1cccc2cc(C(=O)NNS(=O)(=O)c3cccc(F)c3)oc12` [Example 103, 2-Benzofurancarboxylic acid, 7-methoxy-, 2-[(3-fluorophenyl)sulfonyl]hydrazide], the IC50 was 850 nM at rat BCAT cytosolic form and 12 µM in assay [1].

For the compound `COc1cccc2cc(C(=O)NNS(=O)(=O)c3cccc(Cl)c3Cl)oc12` [Example 104, 2-Benzofurancarboxylic acid, 7-methoxy-, 2-[(2,3-dichlorophenyl)sulfonyl]-hydrazide], the IC50 on rat BCAT cytosolic form stood at 1400 nM; in assay [1] it was 23 µM.

In the case of `COc1cccc2cc(C(=O)NNS(=O)(=O)c3ccc(F)c(Cl)c3)oc12` [Example 105, 2-Benzofurancarboxylic acid, 7-methoxy-, 2-[(3-chloro-4-fluorophenyl)sulfonyl]-hydrazide], the values for the IC50 (on rat BCAT cytosolic form; in assay [1]) were 3300 nM and 54 µM, respectively.

Take `COc1ccc(Cl)cc1S(=O)(=O)NNC(=O)c1cc2cccc(OC)c2o1` [Example 106, 2-Benzofurancarboxylic acid, 7-methoxy-, 2-[(5-chloro-2-methoxyphenyl)-sulfonyl]hydrazide]: the IC50 on rat BCAT cytosolic form was determined as 5600 nM; in assay [1], 42 µM.

Take `COc1ccc(Br)cc1S(=O)(=O)NNC(=O)c1cc2cccc(OC)c2o1` [Example 107, 2-Benzofurancarboxylic acid, 7-methoxy-, 2-[(5-bromo-2-methoxyphenyl)-sulfonyl]hydrazide]: the figures for the IC50 (at rat BCAT cytosolic form; in assay [1]) were 7500 nM and 41 µM, respectively.

Regarding `CCc1ccc(S(=O)(=O)NNC(=O)c2cc3cccc(OC)c3o2)cc1` [Example 108, 2-Benzofurancarboxylic acid, 7-methoxy-, 2-[(4-ethylphenyl)sulfonyl]hydrazide], the IC50 on rat BCAT cytosolic form was determined as 5600 nM; in assay [1], 57 µM.

For `COc1cccc(S(=O)(=O)NNC(=O)c2cc3cccc(OC)c3o2)c1` [Example 109, 2-Benzofurancarboxylic acid, 7-methoxy-, 2-[(3-methoxyphenyl)sulfonyl]-hydrazide], the IC50 came to 460 nM at rat BCAT cytosolic form and 9.8 µM in assay [1].

Take `O=C(NNS(=O)(=O)c1cccc(Cl)c1Cl)c1ccc2oc3ccccc3c2c1` [Example 110, 2-Dibenzofurancarboxylic acid, 2-[(2,3-dichlorophenyl)sulfonyl]hydrazide]: the figures for the IC50 (at rat BCAT cytosolic form; in assay [1]) were 720 nM and 11.1 µM, respectively.

Turning to `Cc1cccc(S(=O)(=O)NNC(=O)c2ccc3ccccc3c2)c1` [Example 111, 2-Naphthalenecarboxylic acid, 2-[(3-methylphenyl)sulfonyl]hydrazide], the IC50 is 470 nM at rat BCAT cytosolic form; 0.47 µM and 2.8 µM in assay [1].

Take `Cc1ccc(S(=O)(=O)NNC(=O)c2ccc3ccccc3c2)cc1` [Example 112, 2-Naphthalenecarboxylic acid, 2-[(4-methylphenyl)sulfonyl]hydrazide]: the IC50 at rat BCAT cytosolic form is 6200 nM; in assay [1], 14.6 µM.

Regarding `O=C(NNS(=O)(=O)c1ccccc1C(F)(F)F)c1ccc2ccccc2c1` [Example 113], the IC50 came to 530 nM on rat BCAT cytosolic form and 4.1 µM in assay [1].

As for `O=C(NNS(=O)(=O)c1ccc(C(F)(F)F)cc1)c1ccc2ccccc2c1` [Example 114], the IC50 on rat BCAT cytosolic form came out at 26500 nM; in assay [1], 59.7 µM.

`O=C(NNS(=O)(=O)c1ccc(F)c(Cl)c1)c1ccc2ccccc2c1` [Example 115, 2-Naphthalenecarboxylic acid, 2-[(3-chloro-4-fluorophenyl)sulfonyl]hydrazide]: the IC50 at rat BCAT cytosolic form is 5200 nM; in assay [1], 59.9 µM.

For `COc1cccc(S(=O)(=O)NNC(=O)c2ccc3ccccc3c2)c1` [Example 116, 2-Naphthalenecarboxylic acid, 2-[(3-methoxyphenyl)sulfonyl]hydrazide], the IC50 on rat BCAT cytosolic form was 1200 nM; in assay [1], 8.2 µM.

In the case of `O=C(NNS(=O)(=O)c1cccc(Cl)c1)c1ccc2ccccc2c1` [Example 117, 2-Naphthalenecarboxylic acid, 2-[(3-chlorophenyl)sulfonyl]hydrazide], the results for the IC50 (on rat BCAT cytosolic form; in assay [1]) were 820 nM and 5.7 µM, respectively.

For the compound `O=C(NNS(=O)(=O)c1ccccc1Cl)c1ccc2ccccc2c1` [Example 118, 2-Naphthalenecarboxylic acid, 2-[(2-chlorophenyl)sulfonyl]hydrazide], the IC50 at rat BCAT cytosolic form was 1800 nM; in assay [1] it was 25 µM.

For the compound `O=C(NNS(=O)(=O)c1cccc(F)c1)c1ccc2ccccc2c1` [Example 119, 2-Naphthalenecarboxylic acid, 2-[(3-fluorophenyl)sulfonyl]hydrazide], the IC50 on rat BCAT cytosolic form is 2200 nM; in assay [1], 12.7 µM.

As to `O=C(NNS(=O)(=O)c1cccc(Cl)c1Cl)c1ccc2ccccc2c1` [Example 120, 2-Naphthalenecarboxylic acid, 2-[(2,3-dichlorophenyl)sulfonyl]hydrazide], the IC50 is 2000 nM on rat BCAT cytosolic form and 18.1 µM in assay [1].

As to `CCc1ccc(S(=O)(=O)NNC(=O)c2ccc3ccccc3c2)cc1` [Example 121, 2-Naphthalenecarboxylic acid, 2-[(4-ethylphenyl)sulfonyl]hydrazide], the values for the IC50 (on rat BCAT cytosolic form; in assay [1]) were 11600 nM and 55 µM, respectively.

In the case of `CCCCCc1ccc(S(=O)(=O)NNC(=O)c2cnc3ccccc3c2)cc1` [Example 122, 3-Quinolinecarboxylic acid, 2-[(4-pentylphenyl)sulfonyl)hydrazide], the figures for the IC50 (on rat BCAT cytosolic form; in assay [1]) were 56700 nM and 58 µM, respectively.

As for `O=C(NNS(=O)(=O)c1ccccc1C(F)(F)F)c1cnc2ccccc2c1` [Example 123, 3-Quinolinecarboxylic acid, 2-[[2-(trifluoromethyl)phenyl]sulfonyl]hydrazide], the IC50 on rat BCAT cytosolic form was determined as 2200 nM; in assay [1] it was 11.6 µM.

As for `Cc1cccc(S(=O)(=O)NNC(=O)c2cnc3ccccc3c2)c1` [Example 125, 3-Quinolinecarboxylic acid, 2-[(3-methylphenyl)sulfonyl]hydrazide], the IC50 is 2400 nM on rat BCAT cytosolic form and 18.4 µM in assay [1].

As for `O=C(NNS(=O)(=O)c1ccccc1OC(F)(F)F)c1cnc2ccccc2c1` [Example 126, 3-Quinolinecarboxylic acid, 2-[[2-(trifluoromethoxy)phenyl]sulfonyl]hydrazide], the IC50 at rat BCAT cytosolic form was 12500 nM; in assay [1] it was 36.2 µM.

For `O=C(NNS(=O)(=O)c1ccccc1)c1cc2ccccc2o1` [Example 146, Benzofuran-2-carboxylic acid 2-(phenylsulfonyl)hydrazide], the results for the IC50 (on rat BCAT cytosolic form; in assay [1]) were 2500 nM and 17.8 µM, respectively.

Consider `O=C(NNS(=O)(=O)c1ccccc1)c1ccc2[nH]ccc2c1` [Example 153, 1H-Indole-5-carboxylic acid 2-(phenylsulfonyl)hydrazide], for which the IC50 at rat BCAT cytosolic form was determined as 1900 nM; in assay [1], 15.3 µM.
